Experimental data as given in PubChem BioAssay AID2060885 (Molecular Pharmacology Branch, DTP, NCI, 2025).

Tested on: NCI-H23 complex spheroids with HUVEC/MSC, viability
Test: Anticancer human tumor NCI-H23 cell line growth inhibition [RAS];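 also: spheroids exposed to compound for 7 days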;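 as to viability, T/C: 100% = DMSO vehicle control viability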
Conditions: for IC50: curve of first compound; for viability, T/C: stronger effect = lower value
Outline: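 Tumour cells grown as complex spheroids with HUVEC endothelial cells and mesenchymal stem cells, treated with RAS pathway inhibitor combinations. Each agent spans half-log steps from near clinical Cmax, or 10 microM where Cmax is unknown.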

[1] = second compound 0.0316 µM, first compound 0.0316 µM
[2] = second compound 0.0316 µM, first compound 0.1 µM
[3] = second compound 0.0316 µM, first compound 0.316 µM
[4] = second compound 0.0316 µM, first compound 1 µM
[5] = second compound 0.0316 µM, first compound 3.16 µM
[6] = second compound 0.0316 µM, first compound 10 µM
[7] = second compound 0.1 µM, first compound 0.0316 µM
[8] = second compound 0.1 µM, first compound 0.1 µM
[9] = second compound 0.1 µM, first compound 0.316 µM
[10] = second compound 0.1 µM, first compound 1 µM
[11] = second compound 0.1 µM, first compound 3.16 µM
[12] = second compound 0.1 µM, first compound 10 µM
[13] = second compound 0.316 µM, first compound 0.0316 µM
[14] = second compound 0.316 µM, first compound 0.1 µM
[15] = second compound 0.316 µM, first compound 0.316 µM
[16] = second compound 0.316 µM, first compound 1 µM
[17] = second compound 0.316 µM, first compound 3.16 µM
[18] = second compound 0.316 µM, first compound 10 µM
[19] = second compound 1 µM, first compound 0.0316 µM
[20] = second compound 1 µM, first compound 0.1 µM
[21] = second compound 1 µM, first compound 0.316 µM
[22] = second compound 1 µM, first compound 1 µM
[23] = second compound 1 µM, first compound 3.16 µM
[24] = second compound 1 µM, first compound 10 µM

SMILES: NC1c2ccccc2OC12CCN(c1cnc3c(N4CCCc5ncccc54)n[nH]c3n1)CC2 (stereo unspecified) + C=CC(=O)N1CCN(c2nc(OCC3CCCN3C)nc3c(F)c(-c4nc(N)cc(C)c4C(F)(F)F)c(Cl)cc23)C(C)C1
- IC50 (second compound 0.00316 µM): < 31.6 nM
- IC50 (second compound 0.01 µM): < 31.6 nM
- IC50 (second compound 0.0316 µM): < 31.6 nM
- IC50 (second compound 0.1 µM): < 31.6 nM
- IC50 (second compound 0.316 µM): < 31.6 nM
- IC50 (second compound 1 µM): < 31.6 nM
- viability, T/C (second compound 0.00316 µM, first compound 0.0316 µM): 36.1%
- viability, T/C (second compound 0.00316 µM, first compound 0.1 µM): 31.4%
- viability, T/C (second compound 0.00316 µM, first compound 0.316 µM): 23.7%
- viability, T/C (second compound 0.00316 µM, first compound 1 µM): 20.7%
- viability, T/C (second compound 0.00316 µM, first compound 3.16 µM): 17.5%
- viability, T/C (second compound 0.00316 µM, first compound 10 µM): 12.2%
- viability, T/C (second compound 0.01 µM, first compound 0.0316 µM): 32.9%
- viability, T/C (second compound 0.01 µM, first compound 0.1 µM): 29.2%
- viability, T/C (second compound 0.01 µM, first compound 0.316 µM): 18.9%
- viability, T/C (second compound 0.01 µM, first compound 1 µM): 16.9%
- viability, T/C (second compound 0.01 µM, first compound 3.16 µM): 11.4%
- viability, T/C (second compound 0.01 µM, first compound 10 µM): 10.4%
- viability, T/C [1]: 27.9%
- viability, T/C [2]: 25%
- viability, T/C [3]: 18.2%
- viability, T/C [4]: 13.6%
- viability, T/C [5]: 11.8%
- viability, T/C [6]: 10.1%
- viability, T/C [7]: 25%
- viability, T/C [8]: 21.6%
- viability, T/C [9]: 17.8%
- viability, T/C [10]: 14.8%
- viability, T/C [11]: 11.8%
- viability, T/C [12]: 8.71%
- viability, T/C [13]: 23.1%
- viability, T/C [14]: 23.4%
- viability, T/C [15]: 19.4%
- viability, T/C [16]: 14.8%
- viability, T/C [17]: 12.2%
- viability, T/C [18]: 11.7%
- viability, T/C [19]: 26.8%
- viability, T/C [20]: 24.6%
- viability, T/C [21]: 20.1%
- viability, T/C [22]: 13.1%
- viability, T/C [23]: 12.8%
- viability, T/C [24]: 11.2%

SMILES: C[C@@H](NC(=O)c1ncnc(N)c1Cl)c1ncc(C(=O)Nc2cc(C(F)(F)F)c(Cl)cn2)s1 + C#Cc1c(F)ccc2cc(O)cc(-c3ncc4c(N5CC6CCC(C5)N6)nc(OCC56CCCN5CC(F)C6)nc4c3F)c12
- IC50 (second compound 0.0316 µM): > 10000 nM
- IC50 (second compound 0.1 µM): > 10000 nM
- IC50 (second compound 0.316 µM): > 10000 nM
- IC50 (second compound 1 µM): > 10000 nM
- IC50 (second compound 3.16 µM): > 10000 nM
- IC50 (second compound 10 µM): < 31.6 nM
- viability, T/C [1]: 110%
- viability, T/C [2]: 112%
- viability, T/C [3]: 98.9%
- viability, T/C [4]: 99.9%
- viability, T/C [5]: 92.3%
- viability, T/C [6]: 66.5%
- viability, T/C [7]: 103%
- viability, T/C [8]: 110%
- viability, T/C [9]: 105%
- viability, T/C [10]: 99.5%
- viability, T/C [11]: 91.8%
- viability, T/C [12]: 66.2%
- viability, T/C [13]: 104%
- viability, T/C [14]: 110%
- viability, T/C [15]: 106%
- viability, T/C [16]: 99.4%
- viability, T/C [17]: 85.6%
- viability, T/C [18]: 74.4%
- viability, T/C [19]: 90.3%
- viability, T/C [20]: 96.2%
- viability, T/C [21]: 93.1%
- viability, T/C [22]: 86.1%
- viability, T/C [23]: 83.3%
- viability, T/C [24]: 60.7%
- viability, T/C (second compound 3.16 µM, first compound 0.0316 µM): 67.2%
- viability, T/C (second compound 3.16 µM, first compound 0.1 µM): 69.3%
- viability, T/C (second compound 3.16 µM, first compound 0.316 µM): 60.8%
- viability, T/C (second compound 3.16 µM, first compound 1 µM): 56.9%
- viability, T/C (second compound 3.16 µM, first compound 3.16 µM): 53.6%
- viability, T/C (second compound 3.16 µM, first compound 10 µM): 52.5%
- viability, T/C (second compound 10 µM, first compound 0.0316 µM): 38.7%
- viability, T/C (second compound 10 µM, first compound 0.1 µM): 49.5%
- viability, T/C (second compound 10 µM, first compound 0.316 µM): 46.3%
- viability, T/C (second compound 10 µM, first compound 1 µM): 41.1%
- viability, T/C (second compound 10 µM, first compound 3.16 µM): 48.1%
- viability, T/C (second compound 10 µM, first compound 10 µM): 38.3%

SMILES: CC(=O)OC12COC1CC(O)C1(C)C(=O)C(O)C3=C(C)C(OC(=O)C(O)C(NC(=O)OC(C)(C)C)c4ccccc4)CC(O)(C(OC(=O)c4ccccc4)C21)C3(C)C (stereo unspecified) + CCn1c(-c2cc(N3CCN(C)CC3)cnc2C(C)OC)c2c3cc(ccc31)-c1csc(n1)CC(NC(=O)C1CC1C)C(=O)N1CCCC(N1)C(=O)OCC(C)(C)C2
- IC50 (second compound 0.000949 µM): < 31.6 nM
- IC50 (second compound 0.003 µM): < 31.6 nM
- IC50 (second compound 0.00949 µM): < 31.6 nM
- IC50 (second compound 0.03 µM): < 31.6 nM
- IC50 (second compound 0.0949 µM): < 31.6 nM
- IC50 (second compound 0.3 µM): < 31.6 nM
- viability, T/C (second compound 0.000949 µM, first compound 0.0316 µM): 13.9%
- viability, T/C (second compound 0.000949 µM, first compound 0.1 µM): 16.1%
- viability, T/C (second compound 0.000949 µM, first compound 0.316 µM): 14.7%
- viability, T/C (second compound 0.000949 µM, first compound 1 µM): 15.5%
- viability, T/C (second compound 0.000949 µM, first compound 3.16 µM): 21.5%
- viability, T/C (second compound 0.000949 µM, first compound 10 µM): 25.5%
- viability, T/C (second compound 0.003 µM, first compound 0.0316 µM): 11.9%
- viability, T/C (second compound 0.003 µM, first compound 0.1 µM): 12.4%
- viability, T/C (second compound 0.003 µM, first compound 0.316 µM): 11.6%
- viability, T/C (second compound 0.003 µM, first compound 1 µM): 12.1%
- viability, T/C (second compound 0.003 µM, first compound 3.16 µM): 17.1%
- viability, T/C (second compound 0.003 µM, first compound 10 µM): 19.4%
- viability, T/C (second compound 0.00949 µM, first compound 0.0316 µM): 12.5%
- viability, T/C (second compound 0.00949 µM, first compound 0.1 µM): 10.9%
- viability, T/C (second compound 0.00949 µM, first compound 0.316 µM): 11.6%
- viability, T/C (second compound 0.00949 µM, first compound 1 µM): 13.9%
- viability, T/C (second compound 0.00949 µM, first compound 3.16 µM): 15.8%
- viability, T/C (second compound 0.00949 µM, first compound 10 µM): 17.3%
- viability, T/C (second compound 0.03 µM, first compound 0.0316 µM): 11.4%
- viability, T/C (second compound 0.03 µM, first compound 0.1 µM): 11.7%
- viability, T/C (second compound 0.03 µM, first compound 0.316 µM): 12%
- viability, T/C (second compound 0.03 µM, first compound 1 µM): 12.5%
- viability, T/C (second compound 0.03 µM, first compound 3.16 µM): 16.4%
- viability, T/C (second compound 0.03 µM, first compound 10 µM): 19.9%
- viability, T/C (second compound 0.0949 µM, first compound 0.0316 µM): 10.7%
- viability, T/C (second compound 0.0949 µM, first compound 0.1 µM): 10.6%
- viability, T/C (second compound 0.0949 µM, first compound 0.316 µM): 10.4%
- viability, T/C (second compound 0.0949 µM, first compound 1 µM): 10.9%
- viability, T/C (second compound 0.0949 µM, first compound 3.16 µM): 12.4%
- viability, T/C (second compound 0.0949 µM, first compound 10 µM): 14.9%
- viability, T/C (second compound 0.3 µM, first compound 0.0316 µM): 10.1%
- viability, T/C (second compound 0.3 µM, first compound 0.1 µM): 8.97%
- viability, T/C (second compound 0.3 µM, first compound 0.316 µM): 10.4%
- viability, T/C (second compound 0.3 µM, first compound 1 µM): 8.98%
- viability, T/C (second compound 0.3 µM, first compound 3.16 µM): 12.6%
- viability, T/C (second compound 0.3 µM, first compound 10 µM): 14.2%
